# Test: in vitro
# Conditions: human, hela cells, % viability
row,SMILES,"viability at 28.5 h, 10 µM [%]"
1,Cc1cccc([C@@H]2CN(Cc3ccccc3)C[C@]23CCCC(=O)N3)n1 [CBK283350],107
2,O=C(C1C2CCCCC21)N1CCC(c2nnc3n2CCCCC3)CC1 (centres unmarked) [CBK283351],95.2
3,O=C1NC2(CCc3ccccc31)CCN(C(=O)CCn1cccn1)C2 (centres unmarked) [CBK283352],91.2
4,O=C1CC2(CCN(S(=O)(=O)Cc3ccc(Cl)cc3)CC2)CN1 [CBK283355],102
5,COCC(=O)N1C[C@@H](c2ccc(F)c(F)c2)[C@@]2(CCCC(=O)N2)C1 [CBK283358],103
6,O=C1CC2(CCN(Cc3ccc(C(F)(F)F)cc3)CC2)CN1 [CBK283359],86.8
7,O=C(NC[C@H]1CC[C@H](c2nnc(-c3ccsc3)o2)CC1)C1CC1 [CBK283361],85.5
8,O=C(NC[C@H]1CC[C@H](c2nnc(-c3ccsc3)o2)CC1)C1CCC1 [CBK283363],87.1
9,Cc1ncc(CNC(=O)C2CC2)c(-c2cn(C)c3ccccc23)n1 [CBK283366],103
10,O=C1CCOC[C@]2(CN(Cc3ccccc3)C[C@H]2c2ccccc2)N1 [CBK283367],92.6
11,CC(=O)N1C[C@@H](c2cccc(C)c2)[C@@H]2CN(Cc3cccnc3)CC[C@@H]21 [CBK283368],89.7
12,CC(=O)N1C[C@@H](c2cccc(C)c2)[C@@H]2CN(Cc3ccncc3)CC[C@@H]21 [CBK283370],96.1
13,COc1cccc([C@H]2CN(C(C)=O)[C@@H]3CCN(C4CCCC4)C[C@H]23)c1 [CBK283375],89.7
14,O=C(C1CC1)N1CCC(c2nnc(-c3ccsc3)o2)CC1 [CBK283376],91.6
15,O=C(C1CCCC1)N1CCC(c2nnc(-c3ccsc3)o2)CC1 [CBK283379],86.5
16,O=C(C1CCCCC1)N1CCC(c2nnc(-c3ccsc3)o2)CC1 [CBK283380],104
17,O=C(C1CC1)N1C[C@@H](c2ccsc2)[C@@H]2CN(C3CCCC3)CC[C@@H]21 [CBK283382],107
18,Cc1c(C(=O)N2CCC(c3cc4ncccc4[nH]3)CC2)cnn1C [CBK283384],88.1
19,O=C(c1ccccc1)N1CCC(c2cc3ncccc3[nH]2)CC1 [CBK283385],89.4
20,COc1ccc(CC(=O)N2CCC(c3cc4ncccc4[nH]3)CC2)cc1 [CBK283386],84.3
21,CCCNC(=O)c1cc(C2CCCN(Cc3ccc(F)cc3)C2)no1 (centres unmarked) [CBK283387],94
22,CCCNC(=O)c1cc(C2CCCN(Cc3ccccc3)C2)no1 (centres unmarked) [CBK283388],98
23,CC(C)(C)NC(=O)NC1CCC2(CC1)CC(=O)c1ccccc1O2 (centres unmarked) [CBK283390],109

row,SMILES,"viability at 28.5 h, 10 µM [%]"
1,CC(C)n1cc(C(=O)N2CCC(c3cc4ncccc4[nH]3)CC2)cn1 [CBK283392],95.6
2,O=C(Cc1cccs1)N1CCC(c2cc3ncccc3[nH]2)CC1 [CBK283393],86.5
3,O=C(c1cscn1)N1CCCCC1c1nc2ccccc2[nH]1 (centres unmarked) [CBK283394],91
4,COc1cccc(C(=O)N2CCC(c3cc4ncccc4[nH]3)CC2)c1 [CBK283398],117
5,Cn1cc2c(n1)[C@H]1CN(C(=O)c3cc(C(F)(F)F)n(C)n3)C[C@H]1C2 [CBK283399],88.5
6,CC(=O)Nc1ccc(CN2CCCC(c3cc4ncccc4[nH]3)C2)cc1 (centres unmarked) [CBK283402],92.4
7,Cc1cc(-c2cn(C)nc2C2CCCCN2C(=O)C2CCC2)on1 (centres unmarked) [CBK283403],83.7
8,Cc1cc(-c2cn(C)nc2C2CCCCN2C(=O)C2CCCC2)on1 (centres unmarked) [CBK283404],96.9
9,CCCC(=O)N1CCCCC1c1nn(C)cc1-c1cc(C)no1 (centres unmarked) [CBK283407],106
10,Cc1noc(-c2cn(C)nc2C2CCCCN2CC2CC2)c1C (centres unmarked) [CBK283408],88.1
11,CCCC(=O)N1CCCCC1c1nn(C)cc1-c1onc(C)c1C (centres unmarked) [CBK283409],80.5
12,CCC(=O)N1CCCCC1c1nn(C)cc1-c1onc(C)c1C (centres unmarked) [CBK283411],80.5
13,Cn1ccc(C(=O)N2CCCC(c3cc4ncccc4[nH]3)C2)n1 (centres unmarked) [CBK283412],89.8
14,CC(C)(C)OC(=O)N1CCC(c2cc(=O)n3c(n2)CCCCC3)C1 (centres unmarked) [CBK283415],88.4
15,COc1cccc(C(=O)N2CCCC(c3cc4ncccc4[nH]3)C2)c1 (centres unmarked) [CBK283416],104
16,COc1ccc(CC(=O)N2CCCC(c3cc4ncccc4[nH]3)C2)cc1 (centres unmarked) [CBK283418],94.5
17,CC(C)n1cc(C(=O)N2CCCC(c3cc4ncccc4[nH]3)C2)cn1 (centres unmarked) [CBK283419],88.2
18,COc1ccc(CC(=O)N2CCC(c3cc4ccccc4cn3)C2)cc1 (centres unmarked) [CBK283421],105
19,Cc1cc(O)cc(C2CCCN(C(=O)CC3CCCC3)C2)n1 (centres unmarked) [CBK283422],107
20,Cc1csc(C(=O)N2CCCC(c3cc(O)cc(C)n3)C2)c1 (centres unmarked) [CBK283423],89.5
21,COc1ccc(C(=O)N2C[C@H]3Cc4c(n[nH]c4C(F)F)[C@H]3C2)s1 [CBK283425],95.4
22,O=C(CC1CCCCC1)N1CCCC1c1n[nH]cc1-c1ccncc1 (centres unmarked) [CBK283429],90.4
23,Cc1ccccc1CC(=O)N1CCCC1c1n[nH]cc1-c1ccncc1 (centres unmarked) [CBK283431],87.7

row,SMILES,"viability at 28.5 h, 10 µM [%]"
1,Cc1nc(C)c(C(=O)N2CCC(c3cc4cnccc4[nH]3)CC2)s1 [CBK283432],102
2,O=C(c1ccccc1)N1CCCC1c1n[nH]cc1-c1ccncc1 (centres unmarked) [CBK283433],88.5
3,O=C(Cc1ccccc1)N1CCCC1c1n[nH]cc1-c1ccncc1 (centres unmarked) [CBK283435],85.7
4,Cc1cc(O)cc(C2CCCN(C(=O)c3cccc(F)c3)C2)n1 (centres unmarked) [CBK283440],100
5,Cn1ccnc1C(=O)N1C[C@H]2CCc3c(n[nH]c3C(F)(F)F)[C@H]2C1 [CBK283441],101
6,Cc1cc(Oc2ccc(N(C)C)cc2)cc(C2CCCNC2)n1 (centres unmarked) [CBK283442],101
7,Cn1cc(-c2ccncc2)c(C2CCCCN2C(=O)c2ccccc2)n1 (centres unmarked) [CBK283444],75.7
8,O=C(c1ccc(F)cc1)N1CCC(c2cc3cnccc3[nH]2)CC1 [CBK283445],87.3
9,CN(C)c1ccc(C(=O)N2CCC(c3cc4cnccc4[nH]3)CC2)cc1 [CBK283446],83.8
10,O=C(COc1ccccc1)N1CCC(c2cc3cnccc3[nH]2)CC1 [CBK283449],97.6
11,COCCC(=O)N1C[C@@H](c2cccc(F)c2)[C@@]2(CCCC(=O)N2)C1 [CBK283450],88.1
12,CCC(CC)C(=O)N1CCCC1c1nn(C)cc1-c1cc(C)no1 (centres unmarked) [CBK283452],84.5
13,Cc1cc(-c2cn(C)nc2C2CCCN2C(=O)CC(C)(C)C)on1 (centres unmarked) [CBK283453],87.3
14,COc1ccccc1C(=O)N1CCC[C@@H](N)[C@@H]1c1ccccc1F [CBK283458],86
15,N[C@@H]1CCCN(Cc2ccncc2)[C@H]1c1ccccc1F [CBK283459],88.4
16,Cc1ncsc1C(=O)N1CCCC(c2cc3cnccc3[nH]2)C1 (centres unmarked) [CBK283461],94
17,CC(C)(C)OC(=O)N1CCC[C@]2(CCC(=O)N2)[C@H]1c1ccc(F)cc1 [CBK283462],86.1
18,Fc1ccc(-c2c[nH]nc2C2CCOCC2)cc1 [CBK283464],103
19,Fc1cccc(-c2c[nH]nc2C2CCOCC2)c1 [CBK283465],91
20,CCC(CC)C(=O)N1CCCC1c1n[nH]cc1-c1ccncc1 (centres unmarked) [CBK283467],87.9
21,CC(=O)N1CCCC(c2[nH]c3cccnc3c2CN(C)C)C1 (centres unmarked) [CBK283469],89.1
22,CN(C)Cc1cc(-c2ccccc2F)nn1CCNC(=O)C1CCC1 [CBK283471],93.1
23,Cc1cccc(CC(=O)N2CCCC2c2ccnc3cc(C)nn23)c1 (centres unmarked) [CBK283472],105

row,SMILES,"viability at 28.5 h, 10 µM [%]"
1,CN1C(=O)c2ccccc2C(=O)[C@@]2(C)CN(C3CCCC3)C[C@@H]12 [CBK283476],83.3
2,CCN1C(=O)c2ccccc2C(=O)[C@@]2(C)CN(CC(C)C)C[C@@H]12 [CBK283479],102
3,CN1C[C@H]2N(C)C(=O)c3ccccc3C(=O)[C@@]2(C)C1 [CBK283482],86.7
4,CN(C(=O)C1CCCO1)c1nc2c(s1)CCc1occc1-2 (centres unmarked) [CBK283483],88.8
5,COc1ccc(NCc2cc3sccc3n2C)cc1OC [CBK283486],87
6,Fc1ccc(CNc2c(-c3cccs3)nc3cnccn23)cc1 [CBK283487],112
7,O=C1NC2=C(C(=O)N(CCN3CCCC3)C2)C(c2ccccc2)N1 (centres unmarked) [CBK283493],103
8,c1coc(CNc2c(-c3ccco3)nc3cnccn23)c1 [CBK283496],103
9,O=C(CN1CCC(O)(Cc2ccccc2)CC1)N1CCCCCC1 [CBK283500],96.9
10,O=C(CN1CCC(c2ccc(F)cc2)CC1)N1CCCC1 [CBK283502],98.7
11,CCN(CC)C(=O)N1CCC(c2ccncc2)CC1 [CBK283503],101
12,O=C(CN1CCC(c2ccncc2)CC1)N1CCCCC1 [CBK283504],102
13,c1ccc(CN2CCC(c3ccncc3)CC2)nc1 [CBK283505],101
14,O=C(c1cccnc1)C1CCN(C(=O)Cc2cccc(F)c2)CC1 [CBK283506],101
15,COC(=O)[C@H]1CN(C(=O)CN2CCCC2=O)C[C@@H]1c1ccc(F)cc1 [CBK283507],93.3
16,CCn1cc(C(=O)N2C[C@H](C(=O)OC)[C@@H](c3ccccc3F)C2)cn1 [CBK283510],94.2
17,CC(C)c1nccn1CCC(=O)N1CCC(c2ccncc2)CC1 [CBK283512],105
18,Cc1nc2cc(C(=O)N3CCC(c4ccncc4)CC3)ccc2s1 [CBK283513],85.7
19,O=C(c1cccnc1)C1CCN(C(=O)Cc2ccc(F)cc2)CC1 [CBK283515],90.5
20,COC(=O)[C@H]1CN(C(=O)Cc2ccccn2)C[C@@H]1c1ccc(F)cc1 [CBK283519],93.8
